Where “and” joins values, the source holds several entries; their conditions need not be identical. Equal values may be shown once. Read-outs that look alike come from different tables or passages of the source.
Columns and labels:
[1] = 3-compartment model pharmacokinetic analysis, Cohorts 5 and 6; format: in vivo, human; details: for half-life: read-out: γ phase half-life averaged (converted)
From the text: The concentration-time profile is represented by a tri-exponential equation similar to the following: […]
Where A, B, and C are the ‘macroconstants’ which are a function of the dose, volume of distribution and the ‘microconstants’ (K12, K21, K13, K31, and K10).
Five of these parameters are rate constants and the 6th is the volume of distribution of the central compartment (V1).

[2] = Repeat-dose IV toxicity in dogs; format: in vivo
Description: The magnitude and/or duration of this effect differed among cell lineages but was dose-related in all lineages. Effects on hematopoiesis were readily monitored by peripheral blood cell counts and were reversible when dosing stopped.
In both species, the toxicity profile was similar and the repeat-dose toxicity studies identified no observed adverse effect levels (NOAELs). […] This IV NOAEL was the basis for selecting a starting dose of 6 mg/m^2 for the first clinical trial, which is 1/10th of the lowest safe dose level in any animal study.

[3] = test system: mouse splenocytes; assay: Interferon gamma from splenocytes stimulated ex vivo with anti-CD3/antiCD28 after 5FU; format: in vivo, C57BL/6 Mice; details: mice pretreated with 100 mg/kg Compound 1, 5FU 50 mg/kg
From the text: FIG. 59 is a bar graph of interferon gamma concentration (pg/ml) at day 2 and 7 for mouse splenocytes that were isolated and stimulated ex vivo with anti-CD3/antiCD28.

[4] = Compound 1 PK dosed Days 1-3 with etoposide and carboplatin; format: in vivo, human
Description: Analysis of plasma concentration versus time data for calculation of standard pharmacokinetic (PK) parameters following intravenous infusion administration was conducted using Phoenix WinNonlin version 6.3 using a nominal infusion duration and scheduled blood sampling times.

[5] = Cohort 5, 96 mg/m^2, 3-compartment primary parameter, subjects 1-6, Mean, Median, mean
[6] = 200 mg/m^2 with Etoposide and Carboplatin, Day 1, Max
[7] = 200 mg/m^2 with Etoposide and Carboplatin, Day 1, Min
[8] = 200 mg/m^2 with Etoposide and Carboplatin, Day 1, individual subjects
[9] = 200 mg/m^2 with Etoposide and Carboplatin, Day 3, Max
[10] = 200 mg/m^2 with Etoposide and Carboplatin, Day 3, Min
[11] = 200 mg/m^2 with Etoposide and Carboplatin, Day 3, individual subjects

Compound: CN1CCN(c2ccc(Nc3ncc4cc5n(c4n3)C3(CCCCC3)CNC5=O)nc2)CC1 [Compound 1, 2′-((5-(4-methylpiperazin-1-yl)pyridin-2-yl)amino)-7′,8′-dihydro-6′H-spiro[cyclohexane-1,9′-pyrazino[1′,2′:1,5]pyrrolo[2,3-d]pyrimidin]-6′-one]
- Beta [1, 5]: 0.388 h⁻¹
- Gamma [1, 5]: 0.0502 h⁻¹
- K31 [1, 5]: 0.0692 h⁻¹
- Cmax ([1]; both sexes, human, plasma, intravenous, 96 mg/m2, Cohort 5, 96 mg/m^2, 3-compartment secondary (derived) parameter, six subjects, Mean, Median, read-out: Cmax): 991 ng/mL
- half-life ([1]; both sexes, human, plasma, intravenous, 96 mg/m2, 96 mg/m^2, 3-compartment model, mean): 14.2 h
- half-life ([1]; both, human, plasma, intravenous, […]2): 14 h
- dose with clinically significant leukopenia ([2]; dog, in vivo, 7 days): 300 mg/m^2
- dose leading to morbidity and mortality ([2]; dogs, daily doses for 6 days): 900 mg/m^2
- interferon gamma levels [3]: did not decrease significantly
- AUCinf [4, 6]: 3320 ng·h/mL
- Cmax [4, 6]: 2170 ng/mL
- t½ [4, 6]: 10.6 h
- AUC24.5 [4, 7]: 1530 ng·h/mL
- AUCinf [4, 7]: 1650 ng·h/mL
- Cmax [4, 7]: 587 ng/mL
- t½ [4, 7]: 6.29 h
- AUC24.5 [4, 8]: 2850 ng·h/mL and 1930 ng·h/mL and 2010 ng·h/mL and 2520 ng·h/mL and 1530 ng·h/mL
- AUCinf [4, 8]: 2960 ng·h/mL and 3320 ng·h/mL and 2290 ng·h/mL and 2680 ng·h/mL and 1650 ng·h/mL
- Cmax [4, 8]: 2170 ng/mL and 742 ng/mL and 845 ng/mL and 1840 ng/mL and 587 ng/mL
- t½ [4, 8]: 8.94 h and 10.6 h and 8.91 h and 7.09 h and 7.28 h
- AUCτ [4, 9]: 3300 ng·h/mL
- Cmax [4, 9]: 3360 ng/mL
- AUCτ [4, 10]: 2010 ng·h/mL
- Cmax [4, 10]: 355 ng/mL
- t½ [4, 10]: 6.99 h
- AUCτ [4, 11]: 3300 ng·h/mL and 2010 ng·h/mL and 2630 ng·h/mL and 2610 ng·h/mL and 2890 ng·h/mL
- Cmax [4, 11]: 723 ng/mL and 355 ng/mL and 1190 ng/mL and 3360 ng/mL
- pre-dose concentration averaging ([4]; Day 3, mean): 20.6 ng/mL
- AUC ([4]; human, plasma, intravenous, 200 mg/m2, 200 mg/m^2 with Etoposide and Carboplatin, Day 1, Geo. Mean, read-out: AUC24.5): 2230 ng·h/mL
- AUC(0-inf) ([4]; human, plasma, intravenous, 200 mg/m2, 200 mg/m^2 with Etoposide and Carboplatin, Day 1, Geo. Mean, read-out: AUCinf): 2470 ng·h/mL
- Cmax ([4]; human, plasma, intravenous, 200 mg/m2, 200 mg/m^2 with Etoposide and Carboplatin, Day 1, Geo. Mean, read-out: Cmax): 1070 ng/mL
- half-life ([4]; human, plasma, intravenous, 200 mg/m2, 200 mg/m^2 with Etoposide and Carboplatin, Day 1, Geo. Mean, read-out: t½ (converted)): 8.07 h
- AUC(0-inf) ([4]; human, plasma, intravenous, 200 mg/m2, 200 mg/m^2 with Etoposide and Carboplatin, Day 1, Mean, read-out: AUCinf): 2530 ng·h/mL
- Cmax ([4]; human, plasma, intravenous, 200 mg/m2, 200 mg/m^2 with Etoposide and Carboplatin, Day 1, Mean, read-out: Cmax): 1200 ng/mL
- half-life ([4]; human, plasma, intravenous, 200 mg/m2, 200 mg/m^2 with Etoposide and Carboplatin, Day 1, Mean, read-out: t½ (converted)): 8.19 h
- AUC ([4]; human, plasma, intravenous, 200 mg/m2, 200 mg/m^2 with Etoposide and Carboplatin, Day 1, Median, read-out: AUC24.5): 2270 ng·h/mL
- AUC(0-inf) ([4]; human, plasma, intravenous, 200 mg/m2, 200 mg/m^2 with Etoposide and Carboplatin, Day 1, Median, read-out: AUCinf): 2490 ng·h/mL
- Cmax ([4]; human, plasma, intravenous, 200 mg/m2, 200 mg/m^2 with Etoposide and Carboplatin, Day 1, Median, read-out: Cmax): 923 ng/mL
- half-life ([4]; human, plasma, intravenous, 200 mg/m2, 200 mg/m^2 with Etoposide and Carboplatin, Day 1, Median, read-out: t½ (converted)): 8.09 h
- AUC ([4]; human, plasma, intravenous, 200 mg/m2, 200 mg/m^2 with Etoposide and Carboplatin, Day 1, individual subjects, read-out: AUC24.5): 2860 ng·h/mL
- half-life ([4]; human, plasma, intravenous, 200 mg/m2, 200 mg/m^2 with Etoposide and Carboplatin, Day 1, individual subjects, read-out: t½ (converted)): 6.29 h
- AUC ([4]; human, plasma, intravenous, 200 mg/m2, 200 mg/m^2 with Etoposide and Carboplatin, Day 3, Geo. Mean, read-out: AUCτ): 2530 ng·h/mL
- Cmax ([4]; human, plasma, intravenous, 200 mg/m2, 200 mg/m^2 with Etoposide and Carboplatin, Day 3, Geo. Mean, read-out: Cmax): 1090 ng/mL
- half-life ([4]; human, plasma, intravenous, 200 mg/m2, 200 mg/m^2 with Etoposide and Carboplatin, Day 3, Geo. Mean, read-out: t½ (converted)): 8.95 h
- AUC ([4]; human, plasma, intravenous, 200 mg/m2, 200 mg/m^2 with Etoposide and Carboplatin, Day 3, Mean, read-out: AUCτ): 2570 ng·h/mL
- Cmax ([4]; human, plasma, intravenous, 200 mg/m2, 200 mg/m^2 with Etoposide and Carboplatin, Day 3, Mean, read-out: Cmax): 1380 ng/mL
- half-life ([4]; human, plasma, intravenous, 200 mg/m2, 200 mg/m^2 with Etoposide and Carboplatin, Day 3, Mean, read-out: t½ (converted)): 9.04 h
- AUC ([4]; human, plasma, intravenous, 200 mg/m2, 200 mg/m^2 with Etoposide and Carboplatin, Day 3, Median, read-out: AUCτ): 2620 ng·h/mL
- Cmax ([4]; human, plasma, intravenous, 200 mg/m2, 200 mg/m^2 with Etoposide and Carboplatin, Day 3, Median, read-out: Cmax): 1100 ng/mL
- half-life ([4]; human, plasma, intravenous, 200 mg/m2, 200 mg/m^2 with Etoposide and Carboplatin, Day 3, Median, read-out: t½ (converted)): 9.15 h
- half-life ([4]; human, plasma, intravenous, 200 mg/m2, 200 mg/m^2 with Etoposide and Carboplatin, Day 3, individual subjects, read-out: t½ (converted)): 9.27 h
- AUC(0-inf) ([4]; human, plasma, intravenous, 200 mg/m2, 200 mg/m^2 with etoposide and carboplatin, Day 1, mean, read-out: AUCinf averaged): 2530 ng·h/mL
- Cmax ([4]; human, plasma, intravenous, 200 mg/m2, 200 mg/m^2 with etoposide and carboplatin, Day 1, mean, read-out: Cmax averaged): 1200 ng/mL
- half-life ([4]; human, plasma, intravenous, 200 mg/m2, 200 mg/m^2 with etoposide and carboplatin, Day 1, mean, read-out: Half-lives averaged (converted)): 8.19 h
- half-life ([4]; human, plasma, intravenous, 200 mg/m2, 200 mg/m^2 with etoposide and carboplatin, Day 1, range, read-out: Half-lives range): 6.29 to 10.6 h
- AUC ([4]; human, plasma, intravenous, 200 mg/m2, 200 mg/m^2 with etoposide and carboplatin, Day 3, mean, read-out: AUCτ averaged): 2570 ng·h/mL
- Cmax ([4]; human, plasma, intravenous, 200 mg/m2, 200 mg/m^2 with etoposide and carboplatin, Day 3, mean, read-out: Cmax averaging): 1380 ng/mL
- half-life ([4]; human, plasma, intravenous, 200 mg/m2, 200 mg/m^2 with etoposide and carboplatin, Day 3, mean, read-out: Half-lives averaged (converted)): 9.04 h
- half-life ([4]; human, plasma, intravenous, 200 mg/m2, 200 mg/m^2 with etoposide and carboplatin, Day 3, range, read-out: Half-lives range): 6.99 to 11 h
- concentration at 24.5 h ([4]; human, plasma, intravenous, Day 1, 4 subjects, mean, read-out: concentration at 24.5 hours after the start of infusion, averaging): 20 ng/mL
- concentration at 24.5 h ([4]; human, plasma, intravenous, Day 1, 4 subjects, range, read-out: concentration at 24.5 hours after the start of infusion, range): 11.3 to 35.9 ng/mL
- concentration at 24.5 h ([4]; human, plasma, intravenous, Day 3, mean, read-out: concentration at 24.5 hours after dosing, averaged): 24.6 ng/mL
- concentration at 24.5 h ([4]; human, plasma, intravenous, Day 3, range, read-out: concentration at 24.5 hours after dosing, range): 11.5 to 34.5 ng/mL
